In brackets after ≈: the same amount, converted by molar mass.
How the values were obtained:
Enterobacter sp. 1 = test: MIC, micro broth dilution in Muller Hinton broth (CLSI), Table 1B; assay type: cell-based; settings: read-out: Minimum Inhibitory Concentration
Method: (§1) Besifloxacin HCL was tested against ampicillin and cefotaxime (3rd generation cephalosporin) susceptible and resistant gram-negative bacterial strains involved in GNF (gram negative folliculitis) by broth dilution method as per the Clinical & Laboratory Standards Institutes (CLSI) guidelines. MIC assay was performed in 96 well plates by micro broth dilution method, in 96 well plates, all the wells were added with 100 μl of sterilized Muller Hinton broth No: 2 cation broth (HiMedia, India). The initial stock of test compounds (1 mg/ml) were prepared in dimethyl sulfoxide (DMSO) and further dilutions were made in culture broth to get the desirable concentration. Then 100 μl of broth containing test compounds were initially added to the first column's wells and then serial dilution was performed up to well of 10th column. Wells of 11th and 12th column served as a positive and negative control respectively. Finally, 100 μl of inoculum (0.5 McFarland equal bacterial suspension was 100 times diluted in culture broth) was added to all the wells. Plates were incubated at 37° C. for 18-24 hrs. After incubation, MIC of each test compound was determined by observing the lowest concentration of test compound that has no visual growth compared to growth control. Minimum inhibitory concentration of besifloxacin, ampicillin and cefotaxime against gram negative bacterial strains were shown in Table 1.

Enterobacter sp. 2 = test: as above; assay type: cell-based; settings: read-out: Minimum Inhibitory Concentration
Method: as §1

Klebsiella sp. 498 = test: as above; assay type: cell-based; settings: read-out: Minimum Inhibitory Concentration
Method: as §1

Enterobacter sp. 523 = test: as above; assay type: cell-based; settings: read-out: Minimum Inhibitory Concentration
Method: as §1

Acinetobacter sp. 488 = test: as above; assay type: cell-based; settings: read-out: Minimum Inhibitory Concentration
Method: as §1

Escherichia coli 591 = test: as above; assay type: cell-based; settings: read-out: Minimum Inhibitory Concentration
Method: as §1

Pseudomonas sp. 537 = test: as above; assay type: cell-based; settings: read-out: Minimum Inhibitory Concentration
Method: as §1

Klebsiella sp. 512 = test: as above; assay type: cell-based; settings: read-out: Minimum Inhibitory Concentration
Method: as §1

Enterobacter sp. 532 = test: as above; assay type: cell-based; settings: read-out: Minimum Inhibitory Concentration
Method: as §1

Pseudomonas sp. 556 = test: as above; assay type: cell-based; settings: read-out: Minimum Inhibitory Concentration
Method: as §1

Escherichia coli 592 = test: as above; assay type: cell-based; settings: read-out: Minimum Inhibitory Concentration
Method: as §1

Blastococcus sp. S21A-2 = assay type: cell-based; settings: Blastococcus sp. S21A-2, isolated from acne lesions
Method: (§2) MIC of besifloxacin and other antibiotics molecules were determined by micro broth dilution method as per the Clinical and Laboratory Standards Institute (CLSI) guideline. MIC assay is the determinant of the inherent anti-microbial potency of a particular molecule. For preparing inoculum, bacterial strains were cultured in Brain Heart Infusion Agar (BHIA) at 37° C. for 24 hours. […] For bacterial inoculum, bacterial culture turbidity was adjusted to 0.1 OD at 600 nm in UV-Visual spectrophotometer (approximately 1.5×10^8 cells/ml) and further diluted (100 times with sterile BHI broth). Diluted bacterial suspension (100 μl) was added to each well except sterility control wells (column 12 of 96 well plate). Column 11 of 96 well plate was used as growth control and vehicle control. The plates were incubated at 37° C. for 24 h. The MIC of the test compounds were determined by observing the lowest concentration of test compound that prevented the visual bacterial growth.
(§3) Different skin resident bacteria were isolated from acne lesions of moderate to severe acne patients.

[1] = test system: Dermatobacter hominis S11-2; test: MIC against bacteria isolated from acne lesions, Table 2; assay type: cell-based; settings: S112; Dermatobacter hominis S11-2, isolated from acne lesions; read-out: Minimum Inhibitory Concentration
Method: as §2, §3

[2] = test system: Staphylococcus haemolyticus M1-1; test: as above; assay type: cell-based; settings: M11; Staphylococcus haemolyticus M1-1, isolated from acne lesions; read-out: Minimum Inhibitory Concentration
Method: as §2, §3

[3] = test system: Enterobacter aerogenes M2-1; test: as above; assay type: cell-based; settings: Klebsiella aerogenes, M21; Enterobacter aerogenes M2-1, isolated from acne lesions; read-out: Minimum Inhibitory Concentration
Method: as §2, §3

Microbacterium sp. S20-2 = test: as above; assay type: cell-based; settings: Microbacterium sp. S20-2, isolated from acne lesions
Method: as §2, §3

Kocuria sp. S18-1 = test: as above; assay type: cell-based; settings: SP.S181; Kocuria sp. S18-1, isolated from acne lesions; read-out: Minimum Inhibitory Concentration
Method: as §2, §3

[4] = test system: Bacillus megaterium M1-2.; test: as above; assay type: cell-based; settings: Priestia megaterium, M12., read-out: Minimum Inhibitory Concentration
Method: as §2, §3

K. pneumoniae S6-1 = test: as above; assay type: cell-based; settings: Klebsiella pneumoniae, S61; K. pneumoniae S6-1, isolated from acne lesions; read-out: Minimum Inhibitory Concentration
Method: as §2, §3

S. epidermidis S1-1 = test: as above; assay type: cell-based; settings: Staphylococcus epidermidis, S11; S. epidermidis S1-1, isolated from acne lesions; read-out: Minimum Inhibitory Concentration
Method: as §2, §3

P. avidum S3-1 = test: as above; assay type: cell-based; settings: Cutibacterium avidum, S31; P. avidum S3-1, isolated from acne lesions; read-out: Minimum Inhibitory Concentration
Method: as §2, §3

P. acnes V3-1 = test: as above; assay type: cell-based, Propionibacterium acnes; settings: Cutibacterium acnes, V31; P. acnes V3-1, isolated from acne lesions; read-out: Minimum Inhibitory Concentration
Method: as §2, §3

Question: Which results are given for CO/N=C(\C(=O)N[C@@H]1C(=O)N2C(C(=O)O)=C(COC(C)=O)CS[C@H]12)c1csc(N)n1 [Cefotaxime]?
Answer: MIC (Enterobacter sp. 1): 128 µg/mL (≈ 281 µM); MIC (Enterobacter sp. 2): 0.5 µg/mL (≈ 1.1 µM); MIC (Klebsiella sp. 498): 64 to 128 µg/mL (≈ 141 to 281 µM); MIC (Enterobacter sp. 523): 128 µg/mL (≈ 281 µM); MIC (Acinetobacter sp. 488): > 128 µg/mL; MIC (Escherichia coli 591): < 0.25 µg/mL; MIC (Pseudomonas sp. 537): 16 µg/mL (≈ 35.1 µM); MIC (Klebsiella sp. 512): < 0.25 µg/mL; MIC (Enterobacter sp. 532): 64 µg/mL (≈ 141 µM); MIC (Pseudomonas sp. 556): 4 µg/mL (≈ 8.78 µM); MIC (Escherichia coli 592): 128 µg/mL (≈ 281 µM)

Question: For CC[C@H]1OC(=O)[C@H](C)[C@@H](O[C@H]2C[C@@](C)(OC)[C@@H](O)[C@H](C)O2)[C@H](C)[C@@H](O[C@@H]2O[C@H](C)C[C@H](N(C)C)[C@H]2O)[C@](C)(O)C[C@@H](C)C(=O)[C@H](C)[C@@H](O)[C@]1(C)O [Erythromycin], which “Minimum Inhibitory Concentration” value (Blastococcus sp. S21A-2) is on record?
Answer: <0.01 µg/mL

Question: And the MIC [1]?
Answer: > 4 µg/mL

Question: And the MIC [2]?
Answer: 0.25 µg/mL (≈ 0.341 µM)

Question: What about the MIC [3] of the same compound?
Answer: > 4 µg/mL

Question: And the “Minimum Inhibitory Concentration” value (Microbacterium sp. S20-2)?
Answer: 0.25 µg/mL

Question: What about the MIC (Kocuria sp. S18-1) of the same compound?
Answer: > 4 µg/mL

Question: And the MIC [4]?
Answer: 0.25 µg/mL (≈ 0.341 µM)

Question: What about the MIC (K. pneumoniae S6-1) of the same compound?
Answer: > 4 µg/mL

Question: What about the MIC (S. epidermidis S1-1) of the same compound?
Answer: > 4 µg/mL

Question: What about the MIC (P. avidum S3-1) of the same compound?
Answer: 0.06 µg/mL (≈ 0.0818 µM)

Question: What about the MIC (P. acnes V3-1) of the same compound?
Answer: > 150 µg/mL

Question: How did the “Minimum Inhibitory Concentration” value (Blastococcus sp. S21A-2) turn out when CN(C)[C@@H]1C(O)=C(C(N)=O)C(=O)[C@@]2(O)C(O)=C3C(=O)c4c(O)cccc4[C@@](C)(O)[C@H]3C[C@@H]12 [Tetracycline] was run?
Answer: 0.5 µg/mL

Question: And the MIC [1]?
Answer: > 4 µg/mL

Question: What about the MIC [2] of the same compound?
Answer: 0.25 µg/mL (≈ 0.563 µM)

Question: And the MIC [3]?
Answer: 2 µg/mL (≈ 4.5 µM)

Question: What about the “Minimum Inhibitory Concentration” value (Microbacterium sp. S20-2) of the same compound?
Answer: 2 µg/mL

Question: What about the MIC (Kocuria sp. S18-1) of the same compound?
Answer: 1 µg/mL (≈ 2.25 µM)

Question: And the MIC [4]?
Answer: 0.06 µg/mL (≈ 0.135 µM)

Question: What about the MIC (K. pneumoniae S6-1) of the same compound?
Answer: > 4 µg/mL

Question: What about the MIC (S. epidermidis S1-1) of the same compound?
Answer: > 4 µg/mL

Question: And the MIC (P. avidum S3-1)?
Answer: 1 µg/mL (≈ 2.25 µM)

Question: What about the MIC (P. acnes V3-1) of the same compound?
Answer: 0.3 µg/mL (≈ 0.675 µM)

From patent publication US20210393520A1, “TREATMENT OF GRAM-NEGATIVE FOLLICULITIS OR AN INFLAMMATION THEREOF WITH BESIFLOXACIN” (VYOME THERAPEUTICS LIMITED, priority 2018, published 2021)
